Holding throughout (assay type): cell-based
The subject of assay [1] is panel of lymphoma cell lines. The assay is described as follows: CellTiter-Glo cell viability, panel of lymphoma cell lines. The conditions noted are these: Homo sapiens; single agent, 72 hr exposure, range over cell lines; read-out: Single agent IC50 values across a panel of lymphoma cell lines. As to the method:
(§1) The growth inhibitory effects of belinostat alone, and in combination with pralatrexate, was assayed in several different human lymphoma cell lines in vitro.
(§2) Serum used in this study is un-dialyzed fetal bovine serum (Atlanta Biologics) and contains<[…] of 5-methyltetrahydrofolate.
(§3) The cultures are maintained in T75-cm^2 culture flasks at 37° C., 95% air humidity, and 5% CO2. The cells are subcultured at 80-90% confluence and are seeded into 96-well plates at 1.5×10^4 cells per well for each experiment.
Cell Treatment: Treatment is initiated 24 hours after plating.
(§4) Growth Inhibition Assay: Cell viability is determined using the CellTiter-Glo® Luminescent Cell Viability assay from Promega. The CellTiter-Glo® assay is a homogeneous method to determine and compare cell viability using ATP utilization. Following treatment, 100 μl of growth medium is removed and cells are incubated with 100 μl CellTiter-Glo® reagent for two minutes with nutation and incubated at room temperature for ten additional minutes to stabilize the luminescence signal; luminescence is then measured using a Biotek luminometer with values reported in (Lum).
(§5) Data analysis: Cell viability in each assay is expressed as a percentage versus untreated control cells.
(In general: In ATP-based viability assays light output follows the ATP content of the culture.)

Assay [2] has as its system Jeko-1 [Mantle Cell Lymphoma (B cell origin)]. Put plainly: CellTiter-Glo cell viability / growth inhibition, Jeko-1. The following applies: Homo sapiens; Jeko-1, belinostat plus pralatrexate concurrently, 72 h; read-out: IC50 in combination studies. As to the method: as §1, §2, §3
as §4, with “Cell Treatment: Treatment is initiated 24 hours after plating. […] Growth” for “Growth”
as §5

The test system of assay [3] is KARPAS-299 [Human Non-Hodgkin's Ki-positive Large Cell Lymphoma (T cell origin)]. The assay is described as follows: CellTiter-Glo cell viability / growth inhibition, KARPAS-299. As to the method:
as §1, §2, §3
as §4, with “Cell Treatment: Treatment is initiated 24 hours after plating. […] Growth” for “Growth”
as §5

Assay [4] deals with HUT-78 [Cutaneous T lymphocyte (T cell origin)]. Put plainly: CellTiter-Glo cell viability / growth inhibition, HUT-78. The conditions noted are these: Homo sapiens, HuT78. On the procedure: as §1, §2, §3
as §4, with “Cell Treatment: Treatment is initiated 24 hours after plating. […] Growth” for “Growth”
as §5

Setting [5] is: KARPAS-299, belinostat plus pralatrexate concurrently, 72 h, read-out: IC50 in combination studies.
Where [6] appears, read: HUT-78, belinostat plus pralatrexate concurrently, 72 h, read-out: IC50 in combination studies.
Setting [7] is: HUT-78, single agent, 72 hr exposure, read-out: Single Agent IC50.

2 compounds from patent US11439643B2, “Combination therapy using belinostat and pralatrexate to treat lymphoma” (Spectrum Pharmaceuticals, Inc., priority 2015, dated 2022) can be followed below.

Molecules are shown by their SMILES. Read-outs that look alike come from different tables or passages of the source.

Take `C#CCC(Cc1cnc2nc(N)nc(N)c2n1)c1ccc(C(=O)N[C@@H](CCC(=O)O)C(=O)O)cc1` (mixture of isomers) [Pralatrexate, (2S)-2-[[4-[(1RS)-1-[(2,4-diaminopteridin-6-yl)methyl]but-3ynyl]benzoyl]amino]pentanedioic acid]: the IC50 was 2 to 25 nM in assay [1]; 2.1 nM in assay [2]; 3.6 nM in assay [3] (setting [5]); 24 nM in assay [3] (KARPAS-299, single agent, 72 hr exposure, read-out: Single Agent IC50); 4.1 nM in assay [4] (setting [6]); 2.8 nM in assay [4] (setting [7]).
In the case of `O=C(/C=C/c1cccc(S(=O)(=O)Nc2ccccc2)c1)NO` [Belinostat, (2E)-N-hydroxy-3-[3-(phenylsulfamoyl)phenyl]prop-2-enamide], the IC50 in assay [1] is 90 to 210 nM; in assay [2] it was 87 nM; in assay [3] (setting [5]), 127 nM; in assay [4] (setting [6]), 170 nM; in assay [4] (setting [7]), 97 nM.

The term IC50 denotes the concentration needed to halve the response being measured.
